In PubChem BioAssay AID330 (DTP/NCI, 2004):
Values joined by “and” are separate entries in the source; they are usually repeats but may differ in a detail not shown here. Equal entries are not always repeated. Toxic doses and inconclusive results are not listed.

Tested on: P388 leukemia ip, CD2F1 mice, survival T/C
Test: NCI In Vivo Anticancer Drug Screen. Data for tumor model P388 Leukemia (intraperitoneal) in CD2F1 (CDF1) mice
Details: endpoint: median survival time, higher = longer survival
Outline: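 Mice carrying the transplanted tumor received test compound or vehicle. Survival was recorded in each group, and the value is the treated-group measurement divided by that of the vehicle-treated control group.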

[1] = dose: 60.0 mg/kg/injection, schedule: Q01DX005 (ip), vehicle: saline with Tween-80
[2] = dose: 120.0 mg/kg/injection, schedule: Q01DX005 (ip), vehicle: saline with Tween-80
[3] = dose: 240.0 mg/kg/injection, schedule: Q01DX005 (ip), vehicle: saline with Tween-80
[4] = dose: 50.0 mg/kg/injection, schedule: Q01DX005 (ip), vehicle: saline with Tween-80
[5] = dose: 100.0 mg/kg/injection, schedule: Q01DX005 (ip), vehicle: saline with Tween-80
[6] = dose: 200.0 mg/kg/injection, schedule: Q01DX005 (ip), vehicle: saline with Tween-80
[7] = dose: 12.5 mg/kg/injection, schedule: Q01DX009 (ip), vehicle: saline
[8] = dose: 25.0 mg/kg/injection, schedule: Q01DX009 (ip), vehicle: saline
[9] = dose: 50.0 mg/kg/injection, schedule: Q01DX009 (ip), vehicle: saline
[10] = dose: 100.0 mg/kg/injection, schedule: Q01DX009 (ip), vehicle: saline
[11] = dose: 200.0 mg/kg/injection, schedule: Q01DX009 (ip), vehicle: saline
[12] = dose: 12.5 mg/kg/injection, schedule: Q01DX009 (ip), vehicle: other
[13] = dose: 25.0 mg/kg/injection, schedule: Q01DX009 (ip), vehicle: other
[14] = dose: 50.0 mg/kg/injection, schedule: Q01DX009 (ip), vehicle: other
[15] = dose: 100.0 mg/kg/injection, schedule: Q01DX009 (ip), vehicle: saline with Tween-80
[16] = dose: 25.0 mg/kg/injection, schedule: Q01DX005 (ip), vehicle: Klucel (hydroxypropylcellulose) (HPC)
[17] = dose: 100.0 mg/kg/injection, schedule: Q04DX003 (ip), vehicle: saline
[18] = dose: 200.0 mg/kg/injection, schedule: Q04DX003 (ip), vehicle: saline
[19] = dose: 400.0 mg/kg/injection, schedule: Q04DX003 (ip), vehicle: saline
[20] = dose: 100.0 mg/kg/injection, schedule: Q04DX003 (ip), vehicle: saline with Tween-80
[21] = dose: 200.0 mg/kg/injection, schedule: Q04DX003 (ip), vehicle: saline with Tween-80

With `C=CCOc1cc2c(cc1C/C=C/c1cc(OC)c(OC)c(OC)c1)OCO2` the T/C (dose: 15.0 mg/kg/injection, schedule: Q01DX005 (ip), vehicle: saline with Tween-80) was 101 % of control, the T/C (dose: 30.0 mg/kg/injection, schedule: Q01DX005 (ip), vehicle: saline with Tween-80) was 104 % of control and the T/C [1] was 104 % of control and 89 % of control.

For `O=C1CCC(c2nc3ccccc3[nH]2)N1Cc1ccc(Cl)cc1` (configuration not stated), the T/C [1] was 108 % of control, the T/C [2] was 90 % of control and the T/C [3] was 86 % of control.

In the case of `Brc1ccc(/C=C/c2ccncc2)cc1`, the T/C [4] was 104 % of control, the T/C [5] was 99 % of control and the T/C [6] was 93 % of control.

For `Cc1cc(OC(=O)Nc2cc([N+](=O)[O-])ccc2C)c(C)cc1I`, the T/C [7] was 99 % of control, the T/C [8] was 97 % of control and the T/C [9] was 100 % of control and 91 % of control. For the same compound, the T/C [10] was 92 % of control and the T/C [11] was 100 % of control.

With `O/N=C\C(=N/O)c1ccc(O)c(O)c1` the T/C (dose: 100.0 mg/kg/injection, schedule: Q04DX002 (ip), vehicle: saline with Tween-80) was 107 % of control, the T/C (dose: 200.0 mg/kg/injection, schedule: Q04DX002 (ip), vehicle: saline with Tween-80) was 108 % of control and the T/C (dose: 400.0 mg/kg/injection, schedule: Q04DX002 (ip), vehicle: saline with Tween-80) was 102 % of control.

For `CN(C(=O)c1cc2c(cc1Br)OCO2)c1cccc2ccccc12`, the T/C (dose: 12.5 mg/kg/injection, schedule: Q01DX009 (ip), vehicle: distilled water + Tween-80) was 98 % of control, the T/C (dose: 25.0 mg/kg/injection, schedule: Q01DX009 (ip), vehicle: distilled water + Tween-80) was 103 % of control and the T/C (dose: 50.0 mg/kg/injection, schedule: Q01DX009 (ip), vehicle: distilled water + Tween-80) was 103 % of control. The T/C (dose: 100.0 mg/kg/injection, schedule: Q01DX009 (ip), vehicle: distilled water + Tween-80) was 95 % of control and the T/C (dose: 200.0 mg/kg/injection, schedule: Q01DX009 (ip), vehicle: distilled water + Tween-80) was 100 % of control.

For `COc1ccc(NC(=O)c2cc3c(cc2Br)OCO3)cc1`, the T/C [12] was 102 % of control, the T/C [13] was 96 % of control and the T/C [14] was 100 % of control. The T/C (dose: 100.0 mg/kg/injection, schedule: Q01DX009 (ip), vehicle: other) was 93 % of control, the T/C (dose: 200.0 mg/kg/injection, schedule: Q01DX009 (ip), vehicle: other) was 99 % of control and the T/C (dose: 400.0 mg/kg/injection, schedule: Q01DX009 (ip), vehicle: other) was 89 % of control.

With `CC12CCCCC1=CC(=O)CC2` (configuration not stated) the T/C [12] was 97 % of control, the T/C [13] was 100 % of control and the T/C (dose: 25.0 mg/kg/injection, schedule: Q01DX009 (ip), vehicle: saline + Tween-80 + alcohol) was 100 % of control. The T/C [14] was 107 % of control, the T/C (dose: 50.0 mg/kg/injection, schedule: Q01DX009 (ip), vehicle: saline + Tween-80 + alcohol) was 100 % of control and the T/C (dose: 100.0 mg/kg/injection, schedule: Q01DX009 (ip), vehicle: saline + Tween-80 + alcohol) was 104 % of control and 114 % of control. The T/C (dose: 200.0 mg/kg/injection, schedule: Q01DX009 (ip), vehicle: saline + Tween-80 + alcohol) was 106 % of control.

With `Cc1ccc(C(C)(C)O)cc1O` the T/C (dose: 8.75 mg/kg/injection, schedule: Q01DX005 (ip), vehicle: Klucel + Tween-80) was 100 % of control, the T/C (dose: 17.5 mg/kg/injection, schedule: Q01DX005 (ip), vehicle: Klucel + Tween-80) was 100 % of control and the T/C (dose: 35.0 mg/kg/injection, schedule: Q01DX005 (ip), vehicle: Klucel + Tween-80) was 103 % of control. For the same compound, the T/C (dose: 70.0 mg/kg/injection, schedule: Q01DX005 (ip), vehicle: Klucel + Tween-80) was 103 % of control.

`N[C@H](Cc1c[nH]c2ccccc12)C(=O)O` was tested, and the T/C [15] was 98 % of control, the T/C (dose: 200.0 mg/kg/injection, schedule: Q01DX009 (ip), vehicle: saline with Tween-80) was 103 % of control and the T/C (dose: 400.0 mg/kg/injection, schedule: Q01DX009 (ip), vehicle: saline with Tween-80) was 103 % of control.

With `CC1=CCCC1C1C=CCC1` (configuration not stated) (tested in a mixture with another compound) the T/C (dose: 25.0 mg/kg/injection, schedule: Q01DX009 (ip), vehicle: saline with Tween-80) was 102 % of control, the T/C (dose: 50.0 mg/kg/injection, schedule: Q01DX009 (ip), vehicle: saline with Tween-80) was 103 % of control and 105 % of control and the T/C [15] was 116 % of control.

For `CCOC(=O)/C(=C(\C)N)n1[nH]c(=O)n(-c2ccccc2)c1=O`, the T/C [16] was 98 % of control, the T/C (dose: 50.0 mg/kg/injection, schedule: Q01DX005 (ip), vehicle: Klucel (hydroxypropylcellulose) (HPC)) was 100 % of control and 103 % of control and the T/C (dose: 100.0 mg/kg/injection, schedule: Q01DX005 (ip), vehicle: Klucel (hydroxypropylcellulose) (HPC)) was 101 % of control and 96 % of control. For the same compound, the T/C (dose: 200.0 mg/kg/injection, schedule: Q01DX005 (ip), vehicle: Klucel (hydroxypropylcellulose) (HPC)) was 98 % of control and 103 % of control.

In the case of `O=C1SCCC1n1c(=O)c1=O` (configuration not stated), the T/C (dose: 25.0 mg/kg/injection, schedule: Q01DX005 (ip), vehicle: saline with Tween-80) was 100 % of control, the T/C [4] was 98 % of control and the T/C [1] was 94 % of control. For the same compound, the T/C [5] was 105 % of control, the T/C [2] was 99 % of control and the T/C [6] was 96 % of control. The T/C [3] was 90 % of control and the T/C (dose: 400.0 mg/kg/injection, schedule: Q01DX005 (ip), vehicle: saline with Tween-80) was 99 % of control.

For `CCOC(=O)COc1ccc(CC)cc1Cc1ccc(OC)cc1`, the T/C [4] was 97 % of control, the T/C [5] was 111 % of control and the T/C [6] was 111 % of control.

In the case of `CCOC(=O)CN1CCC(C(=O)OC)CC1`, the T/C [17] was 100 % of control, the T/C [18] was 100 % of control and the T/C [19] was 100 % of control.

`CCOC(=O)C1=C(C)NC(=O)NC1c1ccc(C)cc1` (configuration not stated) was tested, and the T/C [20] was 100 % of control, the T/C [21] was 95 % of control and the T/C (dose: 400.0 mg/kg/injection, schedule: Q04DX003 (ip), vehicle: saline with Tween-80) was 100 % of control.

For `CCOC(=O)c1c[nH]c2c(=O)n(C)c(=O)[nH]c12`, the T/C [20] was 93 % of control and the T/C [21] was 100 % of control.

For `C[N+]1(N)CCOCC1`, the T/C [7] was 97 % of control, the T/C [8] was 100 % of control and the T/C [9] was 92 % of control.

With `O=c1c2[nH]c3ccccc3sc=2c(=O)n1-c1cccc(C(F)(F)F)c1` the T/C [4] was 104 % of control, the T/C [5] was 100 % of control and the T/C [6] was 101 % of control.

In the case of `COP(=O)(O)OC.[V]`, the T/C (dose: 50.0 mg/kg/injection, schedule: Q04DX003 (ip), vehicle: saline with Tween-80) was 96 % of control, the T/C [20] was 103 % of control and 108 % of control and the T/C [21] was 99 % of control.

With `COC(=O)C1(CC(=O)C(c2ccccc2)c2ccccc2)NC(=S)NC(=O)C1C#N` (configuration not stated) the T/C (dose: 60.0 mg/kg/injection, schedule: Q01DX005 (ip), vehicle: saline) was 98 % of control, the T/C (dose: 120.0 mg/kg/injection, schedule: Q01DX005 (ip), vehicle: saline) was 95 % of control and the T/C (dose: 240.0 mg/kg/injection, schedule: Q01DX005 (ip), vehicle: saline) was 100 % of control.

For `CN=C(N)N/N=C(\C)c1ccc2c(c1)Cc1cc(/C(C)=N/NC(N)=NC)ccc1-2`, the T/C (dose: 0.78 mg/kg/injection, schedule: Q04DX002 (ip), vehicle: saline with Tween-80) was 124 % of control, the T/C (dose: 6.25 mg/kg/injection, schedule: Q04DX002 (ip), vehicle: saline with Tween-80) was 154 % of control and the T/C (dose: 12.5 mg/kg/injection, schedule: Q04DX002 (ip), vehicle: saline with Tween-80) was 123 % of control.

With `O=C(CCl)NC(Cc1cccs1)C(=O)O` (configuration not stated) the T/C [9] was 98 % of control, the T/C [10] was 93 % of control and the T/C [11] was 96 % of control.

For `COc1cc(NCCCC2CCCCN2)c2ncccc2c1OC` (configuration not stated), the T/C (dose: 6.25 mg/kg/injection, schedule: Q01DX005 (ip), vehicle: saline) was 103 % of control and the T/C (dose: 12.5 mg/kg/injection, schedule: Q01DX005 (ip), vehicle: saline) was 101 % of control.

In the case of `Nc1cc2c3c(cccc3c1O)CC2`, the T/C (dose: 6.25 mg/kg/injection, schedule: Q01DX005 (ip), vehicle: Klucel (hydroxypropylcellulose) (HPC)) was 99 % of control, the T/C (dose: 12.5 mg/kg/injection, schedule: Q01DX005 (ip), vehicle: Klucel (hydroxypropylcellulose) (HPC)) was 102 % of control and the T/C [16] was 102 % of control.

`C#CC(C)(C)NC(=O)c1cccnc1Oc1ccccc1` was tested, and the T/C [4] was 99 % of control, the T/C [5] was 97 % of control and the T/C [6] was 99 % of control.

In the case of `O=C1N(CO)C2C(N1CO)N(CO)C(=O)N2CO` (configuration not stated), the T/C [17] was 109 % of control, the T/C [18] was 118 % of control and the T/C [19] was 118 % of control.
